# Source: ChEMBL document CHEMBL4308841, “Synthesis, in vitro antiproliferative activity, and kinase inhibitory effects of pyrazole-containing diarylureas and diarylamides” (Eur J Med Chem, 2018)
# Columns and labels:
# HL-60(TB) = assay: Growth inhibition of human HL-60(TB) cells incubated for 48 hrs by sulforhodamine B assay; format: functional, cell-based; conditions: HL-60, 48 h
# SK-MEL-2 = assay: Growth inhibition of human SK-MEL-2 cells incubated for 48 hrs by sulforhodamine B assay; format: functional, cell-based; conditions: SK-MEL-2, 48 h
# RXF 393 = assay: Growth inhibition of human RXF393 cells incubated for 48 hrs by sulforhodamine B assay; format: functional, cell-based; conditions: RXF 393, 48 h
# MCF7 [1] = assay: Growth inhibition of human MCF7 cells incubated for 48 hrs by sulforhodamine B assay; format: functional, cell-based; conditions: MCF7, 48 h
# CCRF-CEM [2] = assay: Growth inhibition of human CCRF-CEM cells assessed as cell growth at 0.01 uM incubated for 48 hrs by sulforhodamine B assay relative to control; format: functional; conditions: read-out: Activity
# SF-539 = assay: Growth inhibition of human SF539 cells assessed as cell growth at 0.01 uM incubated for 48 hrs by sulforhodamine B assay relative to control; format: functional; conditions: SF-539, 48 h, read-out: Activity
# SK-OV-3 = assay: Growth inhibition of human SKOV3 cells assessed as cell growth at 0.01 uM incubated for 48 hrs by sulforhodamine B assay relative to control; format: functional; conditions: SK-OV-3, 48 h, read-out: Activity
# MOLT-4 = assay: Growth inhibition of human MOLT4 cells assessed as cell growth at 0.1 uM incubated for 48 hrs by sulforhodamine B assay relative to control; format: functional; conditions: MOLT-4, 48 h, read-out: Activity
# NCI-H460 = assay: Growth inhibition of human NCI-H460 cells assessed as cell growth at 0.1 uM incubated for 48 hrs by sulforhodamine B assay relative to control; format: functional; conditions: NCI-H460, 48 h, read-out: Activity
# SW-620 = assay: Growth inhibition of human SW620 cells assessed as cell growth at 0.1 uM incubated for 48 hrs by sulforhodamine B assay relative to control; format: functional; conditions: SW-620, 48 h, read-out: Activity
# SF-295 = assay: Growth inhibition of human SF295 cells assessed as cell growth at 0.1 uM incubated for 48 hrs by sulforhodamine B assay relative to control; format: functional; conditions: SF-295, 48 h, read-out: Activity
# MDA-MB-435 [3] = assay: Growth inhibition of human MDA-MB-435 cells assessed as cell growth at 0.1 uM incubated for 48 hrs by sulforhodamine B assay relative to control; format: functional; conditions: MDA-MB-435, 48 h, read-out: Activity
# SK-MEL-28 [4] = assay: Growth inhibition of human SK-MEL-28 cells assessed as cell growth at 0.1 uM incubated for 48 hrs by sulforhodamine B assay relative to control; format: functional; conditions: SK-MEL-28, 48 h, read-out: Activity
# OVCAR-4 [5] = assay: Growth inhibition of human OVCAR4 cells assessed as cell growth at 0.1 uM incubated for 48 hrs by sulforhodamine B assay relative to control; format: functional; conditions: OVCAR-4, 48 h, read-out: Activity
# NCI/ADR-RES = assay: Growth inhibition of human NCI/ADR-RES cells assessed as cell growth at 0.1 uM incubated for 48 hrs by sulforhodamine B assay relative to control; format: functional; conditions: read-out: Activity
# MCF7 [6] = assay: Growth inhibition of human MCF7 cells assessed as cell growth at 0.1 uM incubated for 48 hrs by sulforhodamine B assay relative to control; format: functional; conditions: MCF7, 48 h, read-out: Activity
# CCRF-CEM [7] = assay: Growth inhibition of human CCRF-CEM cells assessed as cell growth at 1 uM incubated for 48 hrs by sulforhodamine B assay relative to control; format: functional; conditions: read-out: Activity
# KM12 = assay: Growth inhibition of human KM12 cells assessed as cell growth at 1 uM incubated for 48 hrs by sulforhodamine B assay relative to control; format: functional; conditions: KM12, 48 h, read-out: Activity
# M14 = assay: Growth inhibition of human M14 cells assessed as cell growth at 1 uM incubated for 48 hrs by sulforhodamine B assay relative to control; format: functional; conditions: M14, 48 h, read-out: Activity
# MDA-MB-435 [8] = assay: Growth inhibition of human MDA-MB-435 cells assessed as cell growth at 1 uM incubated for 48 hrs by sulforhodamine B assay relative to control; format: functional; conditions: MDA-MB-435, 48 h, read-out: Activity
# SK-MEL-28 [9] = assay: Growth inhibition of human SK-MEL-28 cells assessed as cell growth at 1 uM incubated for 48 hrs by sulforhodamine B assay relative to control; format: functional; conditions: SK-MEL-28, 48 h, read-out: Activity
# A498 = assay: Growth inhibition of human A498 cells assessed as cell growth at 1 uM incubated for 48 hrs by sulforhodamine B assay relative to control; format: functional; conditions: A498, 48 h, read-out: Activity
# UO-31 = assay: Growth inhibition of human UO31 cells assessed as cell growth at 1 uM incubated for 48 hrs by sulforhodamine B assay relative to control; format: functional; conditions: UO-31, 48 h, read-out: Activity
# MDA-MB-231 = assay: Growth inhibition of human MDA-MB-231 cells assessed as cell growth at 1 uM incubated for 48 hrs by sulforhodamine B assay relative to control; format: functional; conditions: MDA-MB-231, 48 h, read-out: Activity
# NCI-H226 = assay: Growth inhibition of human NCI-H226 cells assessed as cell growth at 100 uM incubated for 48 hrs by sulforhodamine B assay relative to control; format: functional; conditions: NCI-H226, 48 h, read-out: Activity
# NCI-H522 = assay: Growth inhibition of human NCI-H522 cells assessed as cell growth at 100 uM incubated for 48 hrs by sulforhodamine B assay relative to control; format: functional; conditions: NCI-H522, 48 h, read-out: Activity
# SK-MEL-5 = assay: Growth inhibition of human SK-MEL-5 cells assessed as cell growth at 100 uM incubated for 48 hrs by sulforhodamine B assay relative to control; format: functional; conditions: SK-MEL-5, 48 h, read-out: Activity
# IGROV-1 = assay: Growth inhibition of human IGROV1 cells assessed as cell growth at 100 uM incubated for 48 hrs by sulforhodamine B assay relative to control; format: functional; conditions: IGROV-1, 48 h, read-out: Activity
# OVCAR-3 = assay: Growth inhibition of human OVCAR3 cells assessed as cell growth at 100 uM incubated for 48 hrs by sulforhodamine B assay relative to control; format: functional; conditions: OVCAR-3, 48 h, read-out: Activity
# OVCAR-4 [10] = assay: Growth inhibition of human OVCAR4 cells assessed as cell growth at 100 uM incubated for 48 hrs by sulforhodamine B assay relative to control; format: functional; conditions: OVCAR-4, 48 h, read-out: Activity
# CAKI-1 = assay: Growth inhibition of human Caki1 cells assessed as cell growth at 100 uM incubated for 48 hrs by sulforhodamine B assay relative to control; format: functional; conditions: CAKI-1, 48 h, read-out: Activity
smiles,measurement,setting,value
COc1cc(Cl)cc(-c2nn(-c3cccc(NC(=O)Nc4ccc(Cl)c(Cl)c4)c3)cc2-c2ccncc2)c1,GI50,HL-60(TB); read-out: GI50,2.19 µM
same,LC50,HL-60(TB); read-out: LC50,> 100 µM
same,TGI,HL-60(TB); read-out: TGI,55.8 µM
same,GI50,HL-60(TB); read-out: pGI50 (converted),2.19 µM
same,LC50,HL-60(TB); read-out: pLC50 (converted),> 100 µM
same,TGI,HL-60(TB); read-out: pTGI (converted),5.62 µM
same,GI50,SK-MEL-2; read-out: GI50,1.54 µM
same,CC50,SK-MEL-2; read-out: LC50 (the source's name),8.54 µM
same,TGI,SK-MEL-2; read-out: TGI,37.4 µM
same,GI50,SK-MEL-2; read-out: pGI50 (converted),1.62 µM
same,CC50,SK-MEL-2; read-out: pLC50 (the source's name) (converted),8.51 µM
same,TGI,SK-MEL-2; read-out: pTGI (converted),3.72 µM
same,LC50,RXF 393,> 100 µM
same,GI50,RXF 393; read-out: GI50,1.96 µM
same,TGI,RXF 393; read-out: TGI,72.5 µM
same,GI50,RXF 393; read-out: pGI50 (converted),1.95 µM
same,TGI,RXF 393; read-out: pTGI (converted),7.24 µM
same,GI50,MCF7 [1]; read-out: GI50,2.56 µM
same,LC50,MCF7 [1]; read-out: LC50,> 100 µM
same,TGI,MCF7 [1]; read-out: TGI,13.2 µM
same,GI50,MCF7 [1]; read-out: pGI50 (converted),2.57 µM
same,LC50,MCF7 [1]; read-out: pLC50 (converted),> 100 µM
same,TGI,MCF7 [1]; read-out: pTGI (converted),13.2 µM
same,growth at 0.01 µM,CCRF-CEM [2],97%
same,growth at 0.01 µM,SF-539,100%
same,growth at 0.01 µM,SK-OV-3,100%
same,growth at 0.1 µM,MOLT-4,88%
same,growth at 0.1 µM,NCI-H460,100%
same,growth at 0.1 µM,SW-620,97%
same,growth at 0.1 µM,SF-295,57%
same,growth at 0.1 µM,MDA-MB-435 [3],99%
same,growth at 0.1 µM,SK-MEL-28 [4],103%
same,growth at 0.1 µM,OVCAR-4 [5],95%
same,growth at 0.1 µM,NCI/ADR-RES,98%
same,growth at 0.1 µM,MCF7 [6],94%
same,growth at 1 µM,CCRF-CEM [7],82%
same,growth at 1 µM,KM12,72%
same,growth at 1 µM,M14,82%
same,growth at 1 µM,MDA-MB-435 [8],85%
same,growth at 1 µM,SK-MEL-28 [9],87%
same,growth at 1 µM,A498,73%
same,growth at 1 µM,UO-31,88%
same,growth at 1 µM,MDA-MB-231,85%
same,growth at 100 µM,NCI-H226,2%
same,growth at 100 µM,NCI-H522,-15%
same,growth at 100 µM,SK-MEL-5,-68%
same,growth at 100 µM,IGROV-1,8%
same,growth at 100 µM,OVCAR-3,-4%
same,growth at 100 µM,OVCAR-4 [10],-4%
same,growth at 100 µM,CAKI-1,-8%
